Assay [1] concerns vertebral deformity in osteoporotic post-menopausal women. The note with it: after three years. From the text:
(§1) Postmenopausal women having a “low” lumbar spinal bone mineral density, defined as either a bone mineral density (BMD) of less than or equal to 0.92 g/cm^2 (+ or −0.02 g/cm^2) as measured by Lunar DPX method, or less than or equal to 0.80 g/cm^2 (+ or −0.02 g/cm^2) as measured by the Hologic QDR method are considered to have osteoporosis. This definition corresponds to a BMD of approximately two and one-half standard deviations below the mean BMD of mature pre-menopausal Caucasian women in the United States. Patients are otherwise in good health based on medical history, a physical examination and a laboratory screening evaluation.
(§2) Data was collected on a total of 881 patients from two study groups (cohorts), following virtually identical protocol design and procedures, except that one study was conducted in the United States, and the other was conducted in Canada, Mexico, Europe, Israel, South America, Australia and New Zealand. Data from the two groups was then pooled. […] Additionally, all patients received dietary evaluation and instruction on calcium intake.
(§3) Assessment of vertebral fracture and vertebral deformity (SDI) was based on measurements from lateral spine x-rays, blinded to sequence. Lateral spine x-rays were taken at baseline, one, two and three years. The process of reading the x-rays involved a computerized entry of measurements taken at each of the vertebrae noted on the x-rays, a process known as digitization. […] A computer mouse with cross-hairs is used to enter the data as X,Y coordinates into a commercially available digitization board and computer software program, which computes the distance between landmarks (vertebral heights) in millimeters.

For assay [2], the system named is decrease in stature in osteoporotic post-menopausal women. The note with it: over three years.
Text: as §1, §2

In assay [3] the test system is vertebral fractures in osteoporotic post-menopausal women. As for the experimental part: VERTEBRAL FRACTURES—Calculations of prevalent and incident categorical vertebral fractures were performed by comparing each patient's baseline vertebral heights with a reference population (prevalent fracture) and with their follow-up heigiits (incident fractures). Only data from the true baselines were used to determine prevalent fractures. Any vertebral height ratio more than three standard deviations below its corresponding population reference value was defined as a prevalent vertebral fracture. An incident fracture was defined as greater than or equal to a 20% reduction from baseline vertebral height, with an absolute decrease of at least 4 mm in any vertebral height between baseline and follow-up.
as §1, §2, §3

Regarding `NCCCC(O)(P(=O)(O)O)P(=O)(O)O` [alendronate, 4-amino-1-hydroxy-butylidene-1,1-bisphosphonate], in assay [1], the “SDI mean change from baseline, women with increased deformity” value amounted to 0.143. The “SDI mean change from baseline, overall” value in assay [1] (all women) was determined as 0.041. Moreover, in assay [1] (p=0.028 by Chi-square test), the “patients with progression (increase) in vertebral deformity by SDI” value was determined as 33%. Moreover, the “mean stature lost in patients who sustained at least one vertebral fracture” value in assay [2] was found to be 5.9 mm. Besides, the “number of vertebral fractures per 100 patients” value in assay [3] (three years) is on record as 4.2. The “women with a new vertebral fracture” value in assay [3] (three years of study, 17 of 526 women, oral 5, 10 or 20/5 mg daily pooled, p=0.034 vs placebo) worked out at 3.23%. Also, the “proportion of patients experiencing two or more fractures among patients with at least one incident vertebral fracture” value in assay [3] (three years, 3/17) is 18%. Moreover, the “mild fractures (end-plate deformity fractures) among women who sustained an incident fracture” value in assay [3] (three years, 6/17) is reported as 6/17 (35.3%). For the same molecule, the “severe fractures (crush or wedge fractures) among women who sustained an incident fracture” value in assay [3] (three years, 11/17) is on record as 11/17 (64.7%). Besides, the “reduction in vertebral fracture rate per 100 patients compared to placebo” value in assay [3] (total number of vertebral fractures) is recorded as “at least 63%”.

For the origin of these results see US20010051616A1, “METHOD OF LESSENING THE RISK OF VERTEBRAL FRACTURES” (priority 1995, published 2001).
